Values after ≈ are worked out from the molar mass of the structure shown.
Columns and labels:
[1] = test system: Bacteroides uniformis; test: Antibacterial activity against beta-lactamase producing Bacteroides uniformis assessed as susceptible isolates by CLSI agar dilution method; assay type: functional
[2] = test system: Clostridium paraputrificum; test: Antibacterial activity against beta-lactamase producing Clostridium paraputrificum assessed as susceptible isolates by CLSI agar dilution method; assay type: functional
[3] = test system: Peptoniphilus asaccharolyticus; test: Antibacterial activity against beta-lactamase producing Peptoniphilus asaccharolyticus by CLSI agar dilution method; assay type: functional
[4] = test system: Prevotella buccae; test: Antibacterial activity against Prevotella buccae assessed as susceptible isolates by CLSI agar dilution method; assay type: functional, Segatella buccae
[5] = test system: Bacteroides thetaiotaomicron; test: Antibacterial activity against beta-lactamase producing Bacteroides thetaiotaomicron assessed as resistant isolates by CLSI agar dilution method; assay type: functional
[6] = test system: Bacteroides caccae; test: Antibacterial activity against beta-lactamase producing Bacteroides caccae assessed as resistant isolates by CLSI agar dilution method; assay type: functional
[7] = test system: Clostridium septicum; test: Antibacterial activity against beta-lactamase producing Clostridium septicum assessed as resistant isolates by CLSI agar dilution method; assay type: functional
[8] = test system: Peptostreptococcus anaerobius; test: Antibacterial activity against beta-lactamase producing Peptostreptococcus anaerobius by CLSI agar dilution method; assay type: functional
[9] = test system: Prevotella intermedia; test: Antibacterial activity against Prevotella intermedia by CLSI agar dilution method; assay type: functional
[10] = test system: Prevotella intermedia; test: Antibacterial activity against Prevotella intermedia assessed as susceptible isolates by CLSI agar dilution method; assay type: functional
[11] = test system: Clostridium tertium; test: Antibacterial activity against beta-lactamase producing Clostridium tertium by CLSI agar dilution method; assay type: functional
[12] = test system: Clostridium tertium; test: Antibacterial activity against beta-lactamase producing Clostridium tertium assessed as susceptible isolates by CLSI agar dilution method; assay type: functional
[13] = test system: Fusobacterium mortiferum; test: Antibacterial activity against Fusobacterium mortiferum assessed as resistant isolates by CLSI agar dilution method; assay type: functional
[14] = test system: Fusobacterium varium; test: Antibacterial activity against Fusobacterium varium assessed as resistant isolates by CLSI agar dilution method; assay type: functional
[15] = test system: Clostridium paraputrificum; test: Antibacterial activity against beta-lactamase producing Clostridium paraputrificum by CLSI agar dilution method; assay type: functional
[16] = test system: Bacteroides fragilis; test: Antibacterial activity against Bacteroides fragilis assessed as susceptible isolates by CLSI agar dilution method; assay type: functional
[17] = test system: Clostridium septicum; test: Antibacterial activity against beta-lactamase producing Clostridium septicum assessed as susceptible isolates by CLSI agar dilution method; assay type: functional
[18] = test system: Prevotella melaninogenica; test: Antibacterial activity against Prevotella melaninogenica by CLSI agar dilution method; assay type: functional
[19] = test system: Prevotella bivia; test: Antibacterial activity against Prevotella bivia assessed as susceptible isolates by CLSI agar dilution method; assay type: functional
[20] = test system: Parvimonas micra; test: Antibacterial activity against beta-lactamase producing Micromonas micros by CLSI agar dilution method; assay type: functional
[21] = test system: Bacteroides fragilis; test: Antibacterial activity against Bacteroides fragilis assessed as resistant isolates by CLSI agar dilution method; assay type: functional
[22] = test system: Bacteroides thetaiotaomicron; test: Antibacterial activity against beta-lactamase producing Bacteroides thetaiotaomicron by CLSI agar dilution method; assay type: functional
[23] = test system: Finegoldia magna; test: Antibacterial activity against beta-lactamase producing Finegoldia magna by CLSI agar dilution method; assay type: functional
[24] = test system: Bacteroides uniformis; test: Antibacterial activity against beta-lactamase producing Bacteroides uniformis by CLSI agar dilution method; assay type: functional
[25] = test system: Prevotella intermedia; test: Antibacterial activity against Prevotella intermedia assessed as resistant isolates by CLSI agar dilution method; assay type: functional
[26] = test system: Prevotella melaninogenica; test: Antibacterial activity against Prevotella melaninogenica assessed as resistant isolates by CLSI agar dilution method; assay type: functional
[27] = test system: Fusobacterium mortiferum; test: Antibacterial activity against Fusobacterium mortiferum assessed as susceptible isolates by CLSI agar dilution method; assay type: functional
[28] = test system: Fusobacterium nucleatum; test: Antibacterial activity against Fusobacterium nucleatum assessed as resistant isolates by CLSI agar dilution method; assay type: functional
[29] = test system: Fusobacterium necrophorum; test: Antibacterial activity against Fusobacterium necrophorum assessed as resistant isolates by CLSI agar dilution method; assay type: functional
[30] = test system: Peptoniphilus asaccharolyticus; test: Antibacterial activity against beta-lactamase producing Peptoniphilus asaccharolyticus assessed as susceptible isolates by CLSI agar dilution method; assay type: functional
[31] = test system: Prevotella bivia; test: Antibacterial activity against Prevotella bivia by CLSI agar dilution method; assay type: functional
[32] = test system: Fusobacterium nucleatum; test: Antibacterial activity against Fusobacterium nucleatum by CLSI agar dilution method; assay type: functional
[33] = test system: Prevotella buccae; test: Antibacterial activity against Prevotella buccae assessed as resistant isolates by CLSI agar dilution method; assay type: functional, Segatella buccae
[34] = test system: Fusobacterium varium; test: Antibacterial activity against Fusobacterium varium by CLSI agar dilution method; assay type: functional
[35] = test system: Bacteroides caccae; test: Antibacterial activity against beta-lactamase producing Bacteroides caccae by CLSI agar dilution method; assay type: functional
[36] = test system: Prevotella bivia; test: Antibacterial activity against Prevotella bivia assessed as resistant isolates by CLSI agar dilution method; assay type: functional
[37] = test system: Fusobacterium mortiferum; test: Antibacterial activity against Fusobacterium mortiferum by CLSI agar dilution method; assay type: functional
[38] = test system: Parvimonas micra; test: Antibacterial activity against beta-lactamase producing Micromonas micros assessed as susceptible isolates by CLSI agar dilution method; assay type: functional
[39] = test system: Peptoniphilus asaccharolyticus; test: Antibacterial activity against beta-lactamase producing Peptoniphilus asaccharolyticus assessed as resistant isolates by CLSI agar dilution method; assay type: functional
[40] = test system: Fusobacterium necrophorum; test: Antibacterial activity against Fusobacterium necrophorum by CLSI agar dilution method; assay type: functional
[41] = test system: Peptostreptococcus anaerobius; test: Antibacterial activity against beta-lactamase producing Peptostreptococcus anaerobius assessed as susceptible isolates by CLSI agar dilution method; assay type: functional
[42] = test system: Clostridium paraputrificum; test: Antibacterial activity against beta-lactamase producing Clostridium paraputrificum assessed as resistant isolates by CLSI agar dilution method; assay type: functional
[43] = test system: Phocaeicola vulgatus; test: Antibacterial activity against beta-lactamase producing Bacteroides vulgatus assessed as susceptible isolates by CLSI agar dilution method; assay type: functional
[44] = test system: Clostridium septicum; test: Antibacterial activity against beta-lactamase producing Clostridium septicum by CLSI agar dilution method; assay type: functional
[45] = test system: Fusobacterium necrophorum; test: Antibacterial activity against Fusobacterium necrophorum assessed as susceptible isolates by CLSI agar dilution method; assay type: functional
[46] = test system: Clostridium tertium; test: Antibacterial activity against beta-lactamase producing Clostridium tertium assessed as resistant isolates by CLSI agar dilution method; assay type: functional
[47] = test system: Fusobacterium nucleatum; test: Antibacterial activity against Fusobacterium nucleatum assessed as susceptible isolates by CLSI agar dilution method; assay type: functional
[48] = test system: Phocaeicola vulgatus; test: Antibacterial activity against beta-lactamase producing Bacteroides vulgatus assessed as resistant isolates by CLSI agar dilution method; assay type: functional
[49] = test system: Prevotella buccae; test: Antibacterial activity against Prevotella buccae by CLSI agar dilution method; assay type: functional; settings: Segatella buccae
[50] = test system: Bacteroides uniformis; test: Antibacterial activity against beta-lactamase producing Bacteroides uniformis assessed as resistant isolates by CLSI agar dilution method; assay type: functional
[51] = test system: Parvimonas micra; test: Antibacterial activity against beta-lactamase producing Micromonas micros assessed as resistant isolates by CLSI agar dilution method; assay type: functional
[52] = test system: Clostridium perfringens; test: microbe, parasite or virus in culture; assay type: functional
[53] = test system: Veillonella parvula; test: Antibacterial activity against Veillonella parvula by CLSI agar dilution method; assay type: functional
[54] = test system: Peptostreptococcus anaerobius; test: Antibacterial activity against beta-lactamase producing Peptostreptococcus anaerobius assessed as resistant isolates by CLSI agar dilution method; assay type: functional
[55] = test system: Bacteroides caccae; test: Antibacterial activity against beta-lactamase producing Bacteroides caccae assessed as susceptible isolates by CLSI agar dilution method; assay type: functional
[56] = test system: Finegoldia magna; test: Antibacterial activity against beta-lactamase producing Finegoldia magna assessed as resistant isolates by CLSI agar dilution method; assay type: functional
[57] = test system: Fusobacterium varium; test: Antibacterial activity against Fusobacterium varium assessed as susceptible isolates by CLSI agar dilution method; assay type: functional
[58] = test system: Bacteroides fragilis; test: Antibacterial activity against Bacteroides fragilis by CLSI agar dilution method; assay type: functional
[59] = test system: Bacteroides thetaiotaomicron; test: Antibacterial activity against beta-lactamase producing Bacteroides thetaiotaomicron assessed as susceptible isolates by CLSI agar dilution method; assay type: functional
[60] = test system: Prevotella melaninogenica; test: Antibacterial activity against Prevotella melaninogenica assessed as susceptible isolates by CLSI agar dilution method; assay type: functional
[61] = test system: Phocaeicola vulgatus; test: Antibacterial activity against beta-lactamase producing Bacteroides vulgatus by CLSI agar dilution method; assay type: functional
[62] = test system: Finegoldia magna; test: Antibacterial activity against beta-lactamase producing Finegoldia magna assessed as susceptible isolates by CLSI agar dilution method; assay type: functional

## C[C@@H](O)[C@H]1C(=O)N2C(C(=O)O)=C(S[C@@H]3CN[C@H](C(=O)Nc4cccc(C(=O)O)c4)C3)[C@H](C)[C@H]12
[1]
  Activity: 92%
[2]
  Activity: 96%
[3]
  MIC50: 0.06 µg/mL (≈ 0.126 µM)
  MIC90: 1 µg/mL (≈ 2.1 µM)
[4]
  Activity: 100%
[5]
  Activity: 3%
[6]
  Activity: 4%
[7]
  Activity: 0%
[8]
  MIC50: 0.06 µg/mL (≈ 0.126 µM)
  MIC90: 1 µg/mL (≈ 2.1 µM)
[9]
  MIC50: 0.12 µg/mL (≈ 0.252 µM)
  MIC90: 0.5 µg/mL (≈ 1.05 µM)
[10]
  Activity: 100%
[11]
  MIC50: 0.12 µg/mL (≈ 0.252 µM)
  MIC90: 4 µg/mL (≈ 8.41 µM)
[12]
  Activity: 96%
[13]
  Activity: 0%
[14]
  Activity: 0%
[15]
  MIC50: 0.12 µg/mL (≈ 0.252 µM)
  MIC90: 4 µg/mL (≈ 8.41 µM)
[16]
  Activity: 90%
[17]
  Activity: 96%
[18]
  MIC50: 0.12 µg/mL (≈ 0.252 µM)
  MIC90: 0.5 µg/mL (≈ 1.05 µM)
[19]
  Activity: 100%
[20]
  MIC50: 0.06 µg/mL (≈ 0.126 µM)
  MIC90: 1 µg/mL (≈ 2.1 µM)
[21]
  Activity: 5%
[22]
  MIC50: 1 µg/mL (≈ 2.1 µM)
  MIC90: 4 µg/mL (≈ 8.41 µM)
[23]
  MIC50: 0.06 µg/mL (≈ 0.126 µM)
  MIC90: 1 µg/mL (≈ 2.1 µM)
[24]
  MIC50: 1 µg/mL (≈ 2.1 µM)
  MIC90: 2 µg/mL (≈ 4.21 µM)
[25]
  Activity: 0%
[26]
  Activity: 0%
[27]
  Activity: 100%
[28]
  Activity: 0%
[29]
  Activity: 0%
[30]
  Activity: 100%
[31]
  MIC50: 0.12 µg/mL (≈ 0.252 µM)
  MIC90: 0.5 µg/mL (≈ 1.05 µM)
[32]
  MIC50: 0.06 µg/mL (≈ 0.126 µM)
  MIC90: 0.12 µg/mL (≈ 0.252 µM)
[33]
  Activity: 0%
[34]
  MIC50: 0.06 µg/mL (≈ 0.126 µM)
  MIC90: 0.12 µg/mL (≈ 0.252 µM)
[35]
  MIC50: 1 µg/mL (≈ 2.1 µM)
  MIC90: 2 µg/mL (≈ 4.21 µM)
[36]
  Activity: 0%
[37]
  MIC50: 0.06 µg/mL (≈ 0.126 µM)
  MIC90: 0.12 µg/mL (≈ 0.252 µM)
[38]
  Activity: 100%
[39]
  Activity: 0%
[40]
  MIC50: 0.06 µg/mL (≈ 0.126 µM)
  MIC90: 0.12 µg/mL (≈ 0.252 µM)
[41]
  Activity: 100%
[42]
  Activity: 0%
[43]
  Activity: 92%
[44]
  MIC50: 0.12 µg/mL (≈ 0.252 µM)
  MIC90: 4 µg/mL (≈ 8.41 µM)
[45]
  Activity: 100%
[46]
  Activity: 0%
[47]
  Activity: 100%
[48]
  Activity: 4%
[49]
  MIC50: 0.12 µg/mL (≈ 0.252 µM)
  MIC90: 0.5 µg/mL (≈ 1.05 µM)
[50]
  Activity: 4%
[51]
  Activity: 0%
[52]
  MIC50: 0.12 µg/mL (≈ 0.252 µM)
  MIC90: 4 µg/mL (≈ 8.41 µM)
[53]
  MIC: 0.03 µg/mL (≈ 0.0631 µM)
[54]
  Activity: 0%
[55]
  Activity: 92%
[56]
  Activity: 0%
[57]
  Activity: 100%
[58]
  MIC50: 0.25 µg/mL (≈ 0.526 µM)
  MIC90: 4 µg/mL (≈ 8.41 µM)
[59]
  Activity: 97%
[60]
  Activity: 100%
[61]
  MIC50: 1 µg/mL (≈ 2.1 µM)
  MIC90: 2 µg/mL (≈ 4.21 µM)
[62]
  Activity: 100%
